Measurements: article PMC10453993 (Emerging Microbes & Infections, 2023)

What was measured:
HCoV-229E = experiment: microbe, parasite or virus in culture; assay type: cell-based; settings: Human coronavirus 229E, Caco-2, read-out: HCoV-229E EC50
[1] = biological target: T1, recombinant SARS-CoV-2 3CLpro (Severe acute respiratory syndrome coronavirus 2, UniProt P0DTD1); experiment: cell-based
[2] = biological target: T1, recombinant SARS-CoV-2 3CLpro; experiment: biochemical
[3] = tested on: SARS-CoV-2 B.1.617.2 Delta; experiment: microbe, parasite or virus in culture; assay type: cell-based; settings: Severe acute respiratory syndrome coronavirus 2, Calu-3, read-out: Delta EC50
SARS-CoV-2 Omicron BA.5 = experiment: microbe, parasite or virus in culture; assay type: cell-based; settings: Severe acute respiratory syndrome coronavirus 2, Calu-3, read-out: BA.5 EC50 Calu-3, nucleocapsid, Calu-3, nucleocapsid staining
[4] = tested on: SARS-CoV-2 Omicron BQ.1.1; experiment: microbe, parasite or virus in culture; assay type: cell-based; settings: Severe acute respiratory syndrome coronavirus 2, Calu-3, read-out: BQ.1.1 EC50 Calu-3, nucleocapsid
[5] = tested on: SARS-CoV-2 Omicron XBB.1.5; experiment: microbe, parasite or virus in culture; assay type: cell-based; settings: Severe acute respiratory syndrome coronavirus 2, Caco-2, read-out: XBB.1.5 EC50, nucleocapsid

COc1ccc(N(Cc2cc(Cl)cs2)C(=O)Cc2cncc3ccccc23)cc1 [C2, N-((4-chlorothiophen-2-yl)methyl)-2-(isoquinolin-4-yl)-N-(4-methoxyphenyl)acetamide] gave an EC50 (HCoV-229E) of 5600 ± 1400 nM, an IC50 [1] of 600 ± 200 nM and an IC50 [2] of 8500 ± 1700 nM.
Compound CC(C)(C)c1ccc(N(Cc2cc(Cl)cs2)C(=O)Cc2cncc3ccccc23)cc1 [C3, N-(4-(tert-butyl)phenyl)-N-((4-chlorothiophen-2-yl)methyl)-2-(isoquinolin-4-yl)acetamide] has an EC50 (HCoV-229E) of 9600 ± 1000 nM, an IC50 [1] of 1200 ± 1000 nM and an IC50 [2] of 5000 ± 300 nM.
CSc1ccc(N(Cc2cc(Cl)cs2)C(=O)Cc2cncc3ccccc23)cc1 [C4, N-((4-chlorothiophen-2-yl)methyl)-2-(isoquinolin-4-yl)-N-(4-(methylthio)phenyl)acetamide] was tested, and the EC50 (HCoV-229E) was 7900 ± 3800 nM, the IC50 [1] was 600 ± 300 nM and the IC50 [2] was 2300 ± 200 nM.
CN(C)c1ccc(N(Cc2cc(Cl)cs2)C(=O)Cc2cncc3ccccc23)cc1 [C5, N-((4-chlorothiophen-2-yl)methyl)-N-(4-(dimethylamino)phenyl)-2-(isoquinolin-4-yl)acetamide] was tested, and the EC50 [3] was 3200 nM, the EC50 (HCoV-229E) was 4200 ± 700 nM and the EC50 (SARS-CoV-2 Omicron BA.5) was 100 nM. The EC50 [4] was 300 nM, the IC50 [2] was 900 ± 600 nM and the EC50 [5] was 100 nM.
For CN(C)c1ccc(N(Cc2cc(Cl)cs2)C(=O)Cc2cncc3c(O)cccc23)cc1 [C5b, N-((4-chlorothiophen-2-yl)methyl)-N-(4-(dimethylamino)phenyl)-2-(8-hydroxyisoquinolin-4-yl)acetamide], the IC50 [2] was 4500 ± 1000 nM.
C=CCC(c1cc(Cl)cs1)N(C(=O)Cc1cncc2ccccc12)c1ccc(N(C)C)cc1 (stereo not drawn) [C5c, N-(1-(4-chlorothiophen-2-yl)but-3-en-1-yl)-N-(4-(dimethylamino)phenyl)-2-(isoquinolin-4-yl)acetamide] was tested, and the IC50 [2] was 1400 ± 800 nM.
COc1ccc(Cl)cc1CN(C(=O)Cc1cncc2ccccc12)c1ccc(N(C)C)cc1 [C5d, N-(5-chloro-2-methoxybenzyl)-N-(4-(dimethylamino)phenyl)-2-(isoquinolin-4-yl)acetamide] was tested, and the IC50 [2] was 2200 ± 700 nM.
CN(C)c1ccc(N(Cc2cccc(Br)c2)C(=O)Cc2cncc3ccccc23)cc1 [C5e, N-(3-bromobenzyl)-N-(4-(dimethylamino)phenyl)-2-(isoquinolin-4-yl)acetamide] was tested, and the IC50 [2] was 1400 ± 800 nM.
With CC(C)(C)[C@H](NC(=O)C(F)(F)F)C(=O)N1C[C@H]2[C@@H]([C@H]1C(=O)N[C@H](C#N)C[C@@H]1CCNC1=O)C2(C)C [C7, Nirmatrelvir, reference compound] the EC50 [3] was 1300 nM, the EC50 (HCoV-229E) was 2000 ± 1200 nM and the EC50 (SARS-CoV-2 Omicron BA.5) was 400 nM. The EC50 [4] was 400 nM and the EC50 [5] was 300 nM.
